These results are taken from ChEMBL document CHEMBL1201862, “PubChem BioAssay data set” (2004).

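48-hour exposure; five concentrations; linearly interpolated endpoints. GI50 = concentration required for 50% inhibition of growth.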 Calls of active or inactive are those of the source. Rule as the data show it: active = GI50 up to about 1.1 µM and inactive = higher.

Among the test systems are ACHN; HL-60; HOP-62; HT-29; K562; KM12; LOX IMVI; MDA-MB-231; MDA-MB-435; MOLT-4; NCI-H226; NCI-H23; NCI-H460; OVCAR-4; RPMI-8226; RXF 393; SF-539; SK-MEL-2; TK-10; UACC-257.
What all share (assay): growth of human tumour cells (NCI), 48 h

As for `Cc1c2c(C#N)nccc2c(C)c2c1c1ccccc1n2Cc1ccccc1`, the GI50 with ACHN, in the test on HL-60, with HOP-62, in the test on HT-29, with K562 and with KM12 was > 100 µM (inactive) throughout. The GI50 with LOX IMVI was > 100 µM (inactive); in the test with MDA-MB-231, > 100 µM (inactive); with MDA-MB-435, > 100 µM (inactive); in the test on MOLT-4, > 10 µM (inactive); in the test on NCI-H226 it was > 100 µM (inactive); in the test on NCI-H23 it was > 100 µM (inactive). The GI50 in the test with NCI-H460, in the test with OVCAR-4, in the test on RPMI-8226, in the test on RXF 393, in the test with SF-539 and in the test on SK-MEL-2 was > 100 µM (inactive) in each case. Further, the GI50 with TK-10 and in the test with UACC-257 was > 100 µM (inactive) in each case.

Turning to `CN(C)CCNC(=O)c1cccc2nc3c(ccc4ccccc43)nc12`, the GI50 in the test on ACHN was 1.41 µM (inactive); in the test on HL-60 it was 1.17 µM (inactive); in the test on HOP-62, 2.25 µM (inactive); with HT-29 it was 1.56 µM (inactive); in the test with K562, 1.52 µM (inactive); in the test on KM12, 2.09 µM (inactive). For the same compound, the GI50 is 1.08 µM (active) in the test on LOX IMVI; 1.81 µM (inactive) with MDA-MB-231; 3.33 µM (inactive) with MDA-MB-435; 0.327 µM (active) in the test with MOLT-4; 2.9 µM (inactive) in the test with NCI-H226; 3.9 µM (inactive) in the test with NCI-H23. Moreover, the GI50 in the test with NCI-H460 was 0.479 µM (active); with OVCAR-4 it was 2.21 µM (inactive); with RPMI-8226 it was 1.91 µM (inactive); with RXF 393, 3.2 µM (inactive); in the test with SF-539 it was 1.8 µM (inactive); in the test with SK-MEL-2, 1.91 µM (inactive). Further, the figures for the GI50 in the test with TK-10 and in the test with UACC-257 were 7.93 µM (inactive) and 1.74 µM (inactive), respectively.

As to `CCCCOC(=O)C1CN2C=CC=NC2=NC1(C(F)(F)F)C(F)(F)F` (stereo not given), the GI50 in the test on ACHN, in the test with HL-60, in the test with HOP-62, in the test with HT-29, in the test on K562 and in the test on KM12 was > 100 µM (inactive) in each case. Moreover, the GI50 in the test with LOX IMVI, in the test on MDA-MB-231, with MDA-MB-435, with MOLT-4, with NCI-H226 and with NCI-H23 was > 100 µM (inactive) throughout. The GI50 in the test on NCI-H460, in the test with OVCAR-4, in the test on RPMI-8226, in the test with RXF 393, in the test on SF-539 and in the test on SK-MEL-2 was > 100 µM (inactive) each time. The GI50 in the test on TK-10 and in the test with UACC-257 was > 100 µM (inactive) each time.

`COc1c2c(cc3oc(C)cc(=O)c13)OC(=N)C(C(N)=O)C2CC(=O)c1ccc(N)cc1` (stereo not given): the GI50 in the test with ACHN, in the test with HL-60, in the test with K562, in the test with KM12, in the test with LOX IMVI and in the test on MDA-MB-231 was > 100 µM (inactive) throughout. Also, the GI50 with MDA-MB-435, in the test on MOLT-4, in the test on NCI-H226, in the test with NCI-H460, in the test on OVCAR-4 and with RPMI-8226 was > 100 µM (inactive) throughout. Also, the GI50 in the test with RXF 393, with SF-539, in the test on SK-MEL-2, in the test with TK-10 and with UACC-257 was > 100 µM (inactive) in each case.

With `COc1ccc(N2C(=O)C3c4[nH]c5ccc(OC)cc5c4C4CCC(c5ccccc5)CC4C3C2=O)cc1` (stereo not given), the GI50 in the test with ACHN is 9.48 µM (inactive); with HL-60 it was 11.5 µM (inactive); with HOP-62 it was 5.62 µM (inactive); in the test with HT-29 it was 4.04 µM (inactive); in the test on K562, 7.67 µM (inactive); in the test with KM12 it was 14.2 µM (inactive). Further, the GI50 is 17.3 µM (inactive) in the test with LOX IMVI; 7.05 µM (inactive) in the test on MDA-MB-231; 16.4 µM (inactive) with MDA-MB-435; 4.32 µM (inactive) with MOLT-4; 28.7 µM (inactive) in the test with NCI-H226; 17.5 µM (inactive) in the test with NCI-H23. Also, the GI50 in the test on NCI-H460 is 4.93 µM (inactive); in the test on OVCAR-4, 4.21 µM (inactive); in the test with RPMI-8226, 6.25 µM (inactive); with RXF 393 it was 10.9 µM (inactive); in the test with SF-539, 2.09 µM (inactive); in the test with SK-MEL-2, 20.3 µM (inactive). Further, the values for the GI50 in the test on TK-10 and with UACC-257 were 21.8 µM (inactive) and 17.3 µM (inactive), respectively.

Turning to `c1ccc(-c2nnn3c2NC2=C(CCCC2)C3c2ccccc2)cc1` (stereo not given), the GI50 in the test with ACHN is 1.47 µM (inactive); in the test on HL-60, 18.5 µM (inactive); with HOP-62, 16.4 µM (inactive); in the test on HT-29, 15.1 µM (inactive); in the test with K562 it was 10.3 µM (inactive); in the test with KM12, 15.5 µM (inactive). For the same compound, the GI50 was 13.7 µM (inactive) with LOX IMVI; 24.6 µM (inactive) with MDA-MB-231; 5.71 µM (inactive) in the test with MDA-MB-435; 0.425 µM (active) in the test with MOLT-4; 27.4 µM (inactive) in the test with NCI-H226; 25.8 µM (inactive) with NCI-H23. Besides, the GI50 is 23.4 µM (inactive) in the test on NCI-H460; 14.9 µM (inactive) in the test with RPMI-8226; 17.1 µM (inactive) with RXF 393; 19.1 µM (inactive) in the test on SF-539; 16.2 µM (inactive) in the test with SK-MEL-2; 21.2 µM (inactive) in the test with UACC-257.

For `CCOc1ccncc1[N+](=O)[O-]`, the GI50 in the test with ACHN, in the test on HL-60, in the test on HOP-62, in the test with HT-29, in the test with K562 and with KM12 was > 100 µM (inactive) throughout. Also, the GI50 in the test on LOX IMVI, with MDA-MB-231, with MDA-MB-435, in the test on MOLT-4, with NCI-H226 and in the test with NCI-H23 was > 100 µM (inactive) each time. Besides, the GI50 in the test with RPMI-8226, with RXF 393, in the test on SF-539, in the test on SK-MEL-2, with TK-10 and in the test with UACC-257 was > 100 µM (inactive) each time.

`CN(C)/C=C(\C(=O)c1ccccc1)n1nc(-c2ccccc2)cc1-c1ccccc1`: the GI50 in the test on ACHN, with HL-60, in the test on HOP-62, with HT-29, in the test on KM12 and in the test with LOX IMVI was > 10 µM (inactive) each time. The GI50 in the test with MDA-MB-231, in the test on MDA-MB-435, in the test with MOLT-4, in the test on NCI-H226, in the test on NCI-H23 and with NCI-H460 was > 10 µM (inactive) in each case. Besides, the GI50 in the test with OVCAR-4, with RPMI-8226, with RXF 393, with SF-539, with SK-MEL-2 and in the test on TK-10 was > 10 µM (inactive) in each case. Besides, the GI50 in the test on UACC-257 was > 10 µM (inactive).

Consider `O=C1Nc2ccccc2/C1=N/NC(=O)C(O)(c1ccccc1)c1ccccc1`, for which the GI50 is 29.4 µM (inactive) in the test with ACHN; 17.4 µM (inactive) in the test with HL-60; 19.5 µM (inactive) in the test with HT-29; 23.2 µM (inactive) with K562; 17.4 µM (inactive) in the test with KM12; 16.7 µM (inactive) in the test with LOX IMVI. The GI50 was 18.1 µM (inactive) in the test with MDA-MB-231; 17 µM (inactive) with MDA-MB-435; 15.2 µM (inactive) with MOLT-4; 20.6 µM (inactive) in the test with NCI-H226; 16.1 µM (inactive) with NCI-H23; 17.2 µM (inactive) in the test on NCI-H460. For the same compound, the GI50 in the test on OVCAR-4 was 24.2 µM (inactive); with RPMI-8226, 19.6 µM (inactive); in the test with RXF 393, 14.6 µM (inactive); with SF-539 it was 15.8 µM (inactive); in the test on SK-MEL-2, 17 µM (inactive); in the test on TK-10, 28.8 µM (inactive). For the same compound, the GI50 in the test on UACC-257 was 22 µM (inactive).

On to `CSCCC(NC(=O)Cc1ccc(C(=O)c2ccccc2)cc1)C(=O)O` (stereo not given), for which the GI50 with ACHN, in the test on HL-60, in the test with HOP-62, with HT-29, in the test with K562 and in the test on KM12 was > 100 µM (inactive) throughout. The GI50 with LOX IMVI, with MDA-MB-231, in the test on MDA-MB-435, with MOLT-4, in the test with NCI-H226 and with NCI-H23 was > 100 µM (inactive) throughout. Further, the GI50 in the test with NCI-H460, in the test with OVCAR-4, in the test with RXF 393, in the test on SF-539, in the test with SK-MEL-2 and in the test on TK-10 was > 100 µM (inactive) in each case. Further, in the test with UACC-257, the GI50 is > 100 µM (inactive).
